One block for each compound: values may come before it. Starred links: 1 amine or outer side, 2 acyl side, 3 side chain; linkers in the order of their positions; H or OH if unused. Positions of bridges follow the written chain, without caps; N, C: chain ends. Residues, ends and D or L forms follow the SMILES beside them. mXylylene = c1cc(C[*:1])cc(C[*:2])c1
How the values were obtained:
[1] = biological target: T1, Kelch-like protein 12 (Homo sapiens, UniProt Q53G59); experiment: Binding affinity to KLHL12 (unknown origin) extracted from Escherichia coli BL21 Gold (DE3) assessed as dissociation constant by fluorescence polarization assay
T1 sequence (Q53G59 whole entry): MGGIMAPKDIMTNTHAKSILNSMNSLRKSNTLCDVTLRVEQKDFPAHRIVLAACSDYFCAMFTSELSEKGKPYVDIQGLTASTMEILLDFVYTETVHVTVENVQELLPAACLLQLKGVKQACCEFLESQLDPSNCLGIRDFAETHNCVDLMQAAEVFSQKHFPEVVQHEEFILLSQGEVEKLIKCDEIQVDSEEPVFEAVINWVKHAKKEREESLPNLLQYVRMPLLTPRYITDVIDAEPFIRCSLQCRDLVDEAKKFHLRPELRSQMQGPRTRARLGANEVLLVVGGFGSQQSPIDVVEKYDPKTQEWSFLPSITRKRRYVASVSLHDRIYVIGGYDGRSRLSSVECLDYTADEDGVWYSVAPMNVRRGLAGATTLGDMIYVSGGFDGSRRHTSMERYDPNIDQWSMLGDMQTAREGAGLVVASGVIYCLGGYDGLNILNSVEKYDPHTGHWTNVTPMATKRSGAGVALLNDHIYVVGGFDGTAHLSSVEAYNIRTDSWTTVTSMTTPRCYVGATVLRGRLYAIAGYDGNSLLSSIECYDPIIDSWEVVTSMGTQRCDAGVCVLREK

[2] = biological target: T1, Kelch-like protein 12; experiment: Binding affinity to KLHL12 (unknown origin) assessed as inhibition constant
[3] = biological target: T2, Kelch-like protein 20 (Homo sapiens, UniProt Q9Y2M5); experiment: Binding affinity to KLHL20 (unknown origin) assessed as dissociation constant by fluorescence polarization assay
T2 sequence (Q9Y2M5 whole entry): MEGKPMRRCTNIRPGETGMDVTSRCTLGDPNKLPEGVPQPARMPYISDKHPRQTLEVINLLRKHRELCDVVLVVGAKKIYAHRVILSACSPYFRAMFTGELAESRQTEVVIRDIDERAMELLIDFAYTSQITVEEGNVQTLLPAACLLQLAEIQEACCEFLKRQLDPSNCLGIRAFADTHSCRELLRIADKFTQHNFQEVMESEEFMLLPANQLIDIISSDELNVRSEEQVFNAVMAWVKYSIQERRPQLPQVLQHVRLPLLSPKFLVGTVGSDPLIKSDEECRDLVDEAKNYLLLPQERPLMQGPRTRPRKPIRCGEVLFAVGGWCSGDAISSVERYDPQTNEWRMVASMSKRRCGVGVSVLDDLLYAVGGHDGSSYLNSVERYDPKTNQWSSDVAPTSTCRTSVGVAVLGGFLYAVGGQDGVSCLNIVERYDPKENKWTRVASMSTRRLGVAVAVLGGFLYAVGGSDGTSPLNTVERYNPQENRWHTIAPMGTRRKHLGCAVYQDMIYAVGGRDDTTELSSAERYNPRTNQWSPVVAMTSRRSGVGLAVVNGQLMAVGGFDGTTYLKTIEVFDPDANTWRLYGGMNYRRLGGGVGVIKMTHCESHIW

[4] = biological target: T3, Kelch-like protein 3 (Homo sapiens, UniProt Q9UH77); experiment: Binding affinity to KLHL3 (unknown origin) assessed as dissociation constant by fluorescence polarization assay
T3 sequence (Q9UH77 whole entry): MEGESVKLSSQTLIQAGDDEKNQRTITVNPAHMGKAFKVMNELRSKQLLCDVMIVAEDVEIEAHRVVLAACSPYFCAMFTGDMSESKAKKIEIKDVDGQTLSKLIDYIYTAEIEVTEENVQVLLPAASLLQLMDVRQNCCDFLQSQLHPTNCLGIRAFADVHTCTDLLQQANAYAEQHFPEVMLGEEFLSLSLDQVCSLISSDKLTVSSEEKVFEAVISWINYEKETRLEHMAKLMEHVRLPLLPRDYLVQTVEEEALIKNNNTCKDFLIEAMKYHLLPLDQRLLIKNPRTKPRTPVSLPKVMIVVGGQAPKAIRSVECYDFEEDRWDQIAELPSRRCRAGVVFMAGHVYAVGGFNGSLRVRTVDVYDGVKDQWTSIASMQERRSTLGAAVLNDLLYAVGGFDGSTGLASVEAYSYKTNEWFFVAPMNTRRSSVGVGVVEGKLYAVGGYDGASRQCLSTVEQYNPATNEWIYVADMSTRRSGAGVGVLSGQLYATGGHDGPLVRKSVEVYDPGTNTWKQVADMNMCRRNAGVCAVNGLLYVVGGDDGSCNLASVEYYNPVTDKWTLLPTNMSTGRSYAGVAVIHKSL

[5] = Inhibition of human Kelch-like protein extracted from Escherichia coli
[6] = biological target: Keap1/Nrf2 (Homo sapiens, UniProt Q14145); experiment: Inhibition of Keap1-Nrf2 protein-protein interaction (unknown origin) by fluorescence polarization assay
Chain of Keap1/Nrf2 (Q16236 whole entry): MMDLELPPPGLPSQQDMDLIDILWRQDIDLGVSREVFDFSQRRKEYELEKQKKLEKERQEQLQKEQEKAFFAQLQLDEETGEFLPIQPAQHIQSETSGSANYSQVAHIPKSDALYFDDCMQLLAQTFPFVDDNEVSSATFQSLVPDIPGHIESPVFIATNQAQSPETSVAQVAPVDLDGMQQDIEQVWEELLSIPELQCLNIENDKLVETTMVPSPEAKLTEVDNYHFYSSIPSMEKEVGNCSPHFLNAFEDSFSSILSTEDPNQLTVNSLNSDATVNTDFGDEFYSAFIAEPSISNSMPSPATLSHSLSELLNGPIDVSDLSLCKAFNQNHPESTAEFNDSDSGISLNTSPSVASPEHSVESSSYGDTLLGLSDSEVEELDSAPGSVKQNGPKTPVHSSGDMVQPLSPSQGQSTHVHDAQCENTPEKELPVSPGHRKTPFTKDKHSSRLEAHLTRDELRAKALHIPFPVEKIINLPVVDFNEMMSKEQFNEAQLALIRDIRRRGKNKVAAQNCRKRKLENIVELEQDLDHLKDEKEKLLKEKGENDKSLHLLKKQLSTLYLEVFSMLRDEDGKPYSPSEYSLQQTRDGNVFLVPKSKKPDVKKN
Chain of Keap1/Nrf2 (Q14145 whole entry): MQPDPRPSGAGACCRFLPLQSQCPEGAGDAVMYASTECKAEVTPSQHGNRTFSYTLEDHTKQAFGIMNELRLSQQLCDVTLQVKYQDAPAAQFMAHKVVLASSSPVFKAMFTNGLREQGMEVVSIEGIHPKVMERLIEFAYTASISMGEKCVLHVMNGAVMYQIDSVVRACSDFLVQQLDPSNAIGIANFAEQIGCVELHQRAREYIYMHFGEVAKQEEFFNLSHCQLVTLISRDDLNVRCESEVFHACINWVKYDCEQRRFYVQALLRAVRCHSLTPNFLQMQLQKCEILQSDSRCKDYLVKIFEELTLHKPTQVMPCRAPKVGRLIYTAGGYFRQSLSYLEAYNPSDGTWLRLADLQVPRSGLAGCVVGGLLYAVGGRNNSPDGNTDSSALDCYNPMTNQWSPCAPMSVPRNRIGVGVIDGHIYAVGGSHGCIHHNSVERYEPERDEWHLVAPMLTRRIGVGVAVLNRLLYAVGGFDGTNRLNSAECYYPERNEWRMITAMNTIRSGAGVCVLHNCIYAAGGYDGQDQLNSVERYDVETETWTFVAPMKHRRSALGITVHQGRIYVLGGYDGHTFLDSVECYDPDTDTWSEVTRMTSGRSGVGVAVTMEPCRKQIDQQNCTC

Kd [1]: 15 µM | Ki [2]: 21 µM
Compound: H-PGAPPGRDLASVP-OH

Kd [3]: 0.6 µM
Compound: CC(C)C[C@@H]1NC(=O)[C@H](CC(=O)O)NC(=O)[C@@H]2CCCN2C(=O)[C@@H](N)CSCc2cccc(c2)CSC[C@@H](C(N)=O)NC1=O (H-CPDLC-NH2; linker 1-5 via mXylylene)

Kd [4]: 0.69 µM
Compound: H-EPEEPEADQHQ-OH

IC50 [5]: 0.02 µM
Compound: CC(C)C[C@H](NC(=O)[C@H](Cc1ccccc1)NC(=O)[C@H](CCC(=O)O)NC(=O)CNC(=O)[C@@H](NC(=O)[C@H](CCC(=O)O)NC(=O)[C@H](CCC(=O)O)NC(=O)[C@H](CC(=O)O)NC(=O)[C@@H](N)CC(C)C)[C@@H](C)O)C(=O)O

IC50 [6]: 34.4 µM
Compound: Ac-DPSTGEL-OH

Reference: ChEMBL document CHEMBL5608164, “Targeting kelch-like (KLHL) proteins: achievements, challenges and perspectives” (Eur J Med Chem, 2024)
